Assay results reported in patent US20050171424A1, “Methods for imaging the lymphatic system using dendrimer-based contrast agents” (The Gov. of the USA as rep. by the Secretary of the Dept. …, priority 2004, published 2005).
Entries after “also recorded” stand apart in the source; their conditions may differ.

Experiments:
[1] = Distribution and survival properties of the dendrimer conjugates; settings: in vivo
[2] = system: external iliac lymph nodes in infection model; test: 3D-micro-MRL of nude mice with spontaneous oral ulcers and urinary tract infections; format: in vivo; settings: 45 minutes after injection, FIG. 16B
Procedure: (§1) In this example, the PAMAM-G8 contrast agent is compared to GPDM. PAMAM-G8 was prepared as described in Example 2, and GPDM was purchased (Schering AG, Berlin, Germany). Animal models, administration of the contrast agents, and 3D-micro-MRL were as described in Example 2.
Nude mice that develop spontaneous oral ulcers and urinary tract infections also were examined.

[3] = system: deep lymph nodes, thoracic duct and lymphatic vessels; test: Whole-body 3D-micro-MR lymphangiography of normal mice, PAMAM-G8 versus GPDM (Example 3); format: in vivo
Procedure: (§2) The mice were anesthetized with 1.15 mg sodium pentobarbital (Dainabot, Osaka, Japan) i.p., and then injected intracutaneously with 0.1 μmolGd of PAMAM-G8, DAB-G5, PAMAM-G4, Gadomer-17, or GPDM into four middle phalanges in all four extremities. Dynamic micro-MR images were obtained using a 1.5-Tesla superconductive magnet unit (Signa LX, General Electric Medical System, Milwaukee, Wis.) with a round birdcage type coil of 3 cm diameter fixed by a custom-made coil holder. Four to eight female mice (7 weeks old, 18-21 g body weight) in each group were used and each contrast agent was prepared at least three separate times for these imaging studies. The mice were wrapped with gauze to stabilize their body temperature and were placed at the center of the coils.
(§3) A 3D-fast spoiled gradient echo [3D-fastSPGR (efgre3d package; Signa Horizon, GE); repetition time/echo time 28.5/7.9 msec; inversion time 65 msec; 31.2 kHz, flip angle 30°, four excitations; 40 slice-encoding steps; scan time 7 min 36 seconds] with chemical shift fat-suppression was used 10, 20, 30, and 45 min after injection of the contrast agents. The coronal images were reconstructed with 0.6-mm section thickness at every 0.3-mm. The FOV was 6×3 cm and the size of the matrix was 512×256. The intensities of the regions of interest (ROIs) (for example, a whole axillary lymph node, and the liver) were measured, and then the time-intensity curves analyzed. The data were expressed as the axillary lymph node-to-muscle and the axillary lymph node-to-liver ratios. The slice data were processed into 3D images using the MIP method with the same window and level (window 3500 and level 2300) (Advantage Windows, General Electric Medical System). Two board-certified radiologists separately read a set of stereo views of 3D-MRL for all studies, and estimated the visualization of the thoracic duct. After imaging, the mice were sacrificed by carbon dioxide inhalation.
as §1

[4] = system: lymph nodes and lymphatic vessels of IL-15 transgenic mice; test: 3D-micro-MRL in IL-15 transgenic lymphoproliferative/neoplastic disease model; format: in vivo; settings: 45 minutes after injection
Procedure: Eight- to 10-month old IL-15 transgenic mice (on a C57BL6 background) were used as a chronic lymphoproliferative/neoplastic disease model because they manifested selective expansion of NK, CD8^+NK-T, γδIELs, and CD8 T cells in the periphery. Most of the lymph nodes collected from an aged IL-15 transgenic mouse were enlarged in size. The lesion of proliferated monoclonal lymphocytes often involved the lung and the subcutaneous lymphatic tissue.
as §2
as §3, with “The FOV was 6×3 cm and the size of the matrix was 512×256.” left out, “The slice data were processed into 3D images using the MIP method with the same window and level (window 3500 and level 2300) (Advantage Windows, General Electric Medical System).” left out, “After imaging, the mice were sacrificed by carbon dioxide inhalation.” left out

[5] = system: lymph nodes infiltrated with MC-38 colorectal cancer cells; test: 3D-MRL in MC38 colorectal cancer lymph node metastasis model; format: in vivo, C57BL6 mice
Procedure: In addition, 10-week-old C57BL6 mice (NCI, Frederick, Md.) bearing lymph node metastases of MC38 colorectal cancer cells following either intravenous or subcutaneous injection were used as a mouse model manifesting lymph node metastasis.
The mice were anesthetized with 1.15 mg sodium pentobarbital (Dainabot, Osaka, Japan) i.p., and then injected intracutaneously with 0.1 μmolGd of PAMAM-G8, DAB-G5, PAMAM-G4, Gadomer-17, or GPDM into four middle phalanges in all four extremities. […]
as §3, with “The coronal images were reconstructed with 0.6-mm section thickness at every 0.3-mm. The FOV was 6×3 cm and the size of the matrix was 512×256.” left out, “The slice data were processed into 3D images using the MIP method with the same window and level (window 3500 and level 2300) (Advantage Windows, General Electric Medical System).” left out, “After imaging, the mice were sacrificed by carbon dioxide inhalation.” left out

[6] = system: lymphatic vessels in Concanavalin A lymphangitis; test: 3D-micro-MRL in Concanavalin A lymphangitis model; format: in vivo, C57BL6 mice; settings: FIGS. 10, 14A
Procedure: To generate a lymphangitis model, Concanavalin A ([…]) (Sigma, St. Louis, Mo.) was injected intravenously into C57BL6 mice (NCI, Frederick, Md.) 24 hours before MRI was performed.
The mice were anesthetized with 1.15 mg sodium pentobarbital (Dainabot, Osaka, Japan) i.p., and then injected intracutaneously with 0.1 μmolGd of PAMAM-G8, DAB-G5, PAMAM-G4, Gadomer-17, or GPDM into four middle phalanges in all four extremities. Dynamic micro-MR images were obtained using a 1.5-Tesla superconductive magnet unit (Signa LX, General Electric Medical System, Milwaukee, Wis.) with a round birdcage type coil of 3 cm diameter fixed by a custom-made coil holder. […]
A 3D-fast spoiled gradient echo [3D-fastSPGR (efgre3d package; Signa Horizon, GE); repetition time/echo time 28.5/7.9 msec; inversion time 65 msec; 31.2 kHz, flip angle 30°, four excitations; 40 slice-encoding steps; scan time 7 min 36 seconds] with chemical shift fat-suppression was used 10, 20, 30, and 45 min after injection of the contrast agents. […] The intensities of the regions of interest (ROIs) (for example, a whole axillary lymph node, and the liver) were measured, and then the time-intensity curves analyzed. The data were expressed as the axillary lymph node-to-muscle and the axillary lymph node-to-liver ratios. […]

deep lymphatic system = test: Whole-body dynamic 3D-micro-MR lymphangiography of normal mice (Example 2); format: in vivo; settings: for Number of Mice in Which the Thoracic Duct was Visualized/Number of Mice Examined: Normal Mice, 0.1 μmolGd intracutaneously into four middle phalanges
Procedure: as §2, §3
Statistical analyses were performed using either Student's t-test or a one-way analysis of variance (ANOVA), with a pairwise comparison using the Bonferroni method for signal intensity curves (Statview; SAS Institute Inc., Cary, N.C.).

PAMAM-G7D-(Gd-1B4M)1024 dendrimer conjugate [PAMAM-G8]
Distribution within the lymphatic system [1]: lymphotropic behavior (accumulation in the lymph system) and minimal leakage out of the lymphatic vessels
Lymph node findings in infection model [2]: irregular dilation of the lymphatic vessels in the lymph nodes
Visualization of other lymphatic vessels [3]: better visualized with PAMAM-G8 than with GPDM
Visualization of deep lymph nodes throughout the body ([3]; intracutaneous injection, 0.05 mmolGd/kg (FIG. 13)): most deep lymph nodes throughout the body were visualized
Visualization of the thoracic duct ([3]; intracutaneous injection, FIG. 13): visualized in all six mice
Visualization of dilation of lymphatic vessels ([4]; FIG. 11): best visualized with PAMAM-G8
Lymph node findings on 3D-micro-MRL ([4]; FIGS. 11, 15A): considerable multiple lymph node swellings with central filling defects; also recorded: enlargement and a lack of enhancement within several of the lymph nodes
Findings on 3D-MRL in mouse with lymph node metastasis ([5]; 45 minutes after injection, FIG. 12 left image): dilated lymphatic vessels surrounding the tumor and a collateral lymphatic vessel
Findings on 3D-MRL in mice with subcutaneously xenografted MC-38 tumor ([5]; FIG. 12 right image): did not show any abnormalities in either the lymph nodes or the lymphatic vessels
Detection of dilation of the lymphatic vessels [6]: demonstrated the remarkable dilation of the lymphatic vessels throughout the body, especially in the liver; also recorded: able to detect remarkable dilation of lymphatic vessels
Number of Mice in Which the Thoracic Duct was Visualized/Number of Mice Examined (deep lymphatic system; 10 min): 10/10
Number of Mice in Which the Thoracic Duct was Visualized/Number of Mice Examined (deep lymphatic system; 20 min): 10/10
Number of Mice in Which the Thoracic Duct was Visualized/Number of Mice Examined (deep lymphatic system; 30 min): 10/10
Number of Mice in Which the Thoracic Duct was Visualized/Number of Mice Examined (deep lymphatic system; 45 min): 10/10
Axillary lymph node-to-background (muscle) signal intensity ratio, comparison between agents (deep lymphatic system; T1-weighted signal, all time points examined, P<0.01, FIG. 9A): significantly higher than that measured with Gadomer-17 and GPDM
Axillary lymph node-to-liver signal intensity ratio, comparison between agents (deep lymphatic system; all time points examined, P<0.01, FIG. 9B): nearly equivalent, but were significantly higher than that measured with GPDM
Visualization of the lymphatic vessels, comparison between agents (deep lymphatic system; normal mice): better visualized with PAMAM-G8 compared to all other agents examined
Visualization of the deep lymph nodes (deep lymphatic system; normal mice, 10 to 45 min after intracutaneous injection, FIGS. 7, 8): enabled most of the deep lymph nodes to be visualized
Visualization by a radiologist of the thoracic duct (deep lymphatic system; normal mice, all times after administration): in all mice at all times after administration
